Experimental data as given in ChEMBL document CHEMBL2034939, “Structure-based virtual screening of novel inhibitors of the uridyltransferase activity of Xanthomonas oryzae pv. oryzae GlmU” (Eur J Med Chem, 2012).
In brackets after ≈: the same amount, converted by molar mass.

Columns and labels:
[1] = Inhibition of Xanthomonas oryzae pv. oryzae KS-1-21 uridyltransferase domain of GlmU activity by ion-pair reverse-phase HPLC analysis
[2] = tested on: Xanthomonas oryzae pv. oryzae; assay: Antibacterial activity against Xanthomonas oryzae pv. oryzae KS-1-21 after 36 to 48 hrs by broth microdilution assay; type: functional
[3] = Noncompetitive inhibition of Xanthomonas oryzae pv. Oryzae KS-1-21 GlmU using varying concentration of UTP and 500 uM GlcNAc-1-p by Lineweaver-Burk plot analysis
[4] = Noncompetitive inhibition of Xanthomonas oryzae pv. Oryzae KS-1-21 GlmU using 0.25 to 0.05 mM GlcNAc-1-p and 500 uM UTP by Lineweaver-Burk plot analysis
[5] = Uncompetitive inhibition of Xanthomonas oryzae pv. Oryzae KS-1-21 GlmU using 0.25 to 0.05 mM GlcNAc-1-p and 500 uM UTP by Lineweaver-Burk plot analysis
[6] = Competitive inhibition of Xanthomonas oryzae pv. Oryzae KS-1-21 GlmU using varying concentration of UTP and 500 uM GlcNAc-1-p by Lineweaver-Burk plot analysis
[7] = Competitive inhibition of Xanthomonas oryzae pv. Oryzae KS-1-21 GlmU using 0.25 to 0.05 mM GlcNAc-1-p and 500 uM UTP by Lineweaver-Burk plot analysis
[8] = Uncompetitive inhibition of Xanthomonas oryzae pv. Oryzae KS-1-21 GlmU using varying concentration of UTP and 500 uM GlcNAc-1-p by Lineweaver-Burk plot analysis

SMILES	IC50 [1] [µM]	MIC [2] [µg/mL]	other results
CCN(CC)c1ccc(/C=C(\NC(=O)c2ccccc2)C(=O)N/N=C/c2cc(O)ccc2Br)cc1	62.5	> 500	
CCCCCOc1ccc(/C=N/NC(=O)c2nnn(-c3nonc3N)c2CN2CCCCCC2)cc1	87.4	> 500	
Cc1cc(OCC(=O)NNC(=O)c2ccc(O)cc2O)cc(C)c1Cl	23.2	420 (≈ 1150 µM)	Ki [3]: 8.89 µM; Ki [4]: 19.4 µM
O=C(CCCCC(=O)NNC(=O)COc1ccc2ccccc2c1)NNC(=O)COc1ccc2ccccc2c1	14.2	302 (≈ 557 µM)	Ki [5]: 8.23 µM; Ki [6]: 8.1 µM
CCOc1ccc(C(=O)NCCCCCCCNC(=O)c2ccc(OCC)cc2)cc1	76.5	> 500	
Cc1ccc(OCC(=O)Nc2ccccc2C(=O)NC2CCCCC2)cc1	84.2	> 500	
COc1ccc(C(=O)/C=C/c2cn(CC(O)CN3CCCCC3)c3ccccc23)cc1OC (configuration not stated)	> 100	82 (≈ 183 µM)	
O=c1cc(-c2ccc(O)c(O)c2)oc2cc(O)cc(O)c12 [LUTEOLIN]	0.81	186 (≈ 651 µM)	Ki [7]: 0.44 µM; Ki [8]: 0.99 µM
